Experimental data taken from patent US9289444B2, “Composition for promoting hematogenesis containing quercetin 3-O-β-(2″-galloyl)-rhamnopyranoside as active ingredient” (Chungbuk National University Industry Academic Cooperation …, priority 2011, dated 2016).

Experiments:
[1] = tested on: BMNCs; test: Semisolid colonogenic assay (BFU-E colonies); type: cell-based, mouse
Protocol: To investigate the effects of QGR on erythroid lineage development in mouse HSCs and EPCs, the colonogenic assay was performed according to the manufacturer's instruction in triplicate by plating 2×10^5 cells/plate using methylcellulose stock solution in IMDM (R&D Systems) with cocktail (rIL-3 100 units/ml plus rSCF 5 units/ml plus rEpo 3 units/ml) or/and QGR (0, 100 or 200 μM/ml) in 35 mm-diameter cell culture plates. These plates were put in 100 mm-diameter plates with 3 ml of autoclaved distilled water and incubated at 37° C. in 5% CO2 humidity air. 14 days later, BFU-E colonies were counted under an Axiovert 40 CFL inverted microscope (Carl Zeiss, Oberkochen, Germany).

[2] = tested on: BMNCs; test: Histochemistry (Wright-Giemsa) and immunocytochemistry for erythroid cells (TER-119); type: cell-based, mouse; settings: 7 days culture
Protocol: In order to investigate whether QGR can stimulate the differentiation of hematopoietic stem cells into erythroid cells, the morphology of cells was observed and immunocytochemistry against TER-119, the marker of erythroid progenitors, was carried out. BMNCs were harvested 7 days after incubation with either rEpo (3 units/ml) or QGR (100 or 200 μM/ml) washed with PBS, re-suspended at a concentration of 2×10^5 cells/ml in PBS and subjected (100 μl/slide) to cytospin for 5 min at 1,000 rpm (Cytospin3; Shandon, ThermoElectron, Waltham, Mass., USA). All slides were fixed using cold methanol. Wright-Giemsa stain was performed for morphologic analysis. Immunocytochemistry against TER-119 was carried out for cellular lineage with 100-fold dilution according to the manufacturer's instruction using avidin biotinylated enzyme complex kit (VECTASTAIN, Vector Laboratories and Burlingame, Calif., USA).

[3] = tested on: unopsonized zymosan-stimulated human monocytes; settings: cited from earlier work
[4] = tested on: bone marrow failure mouse induced by busulphan (BU); test: Peripheral blood analysis in bone marrow failure model induced by busulphan (BU); type: in vivo, Balb/c mice
Excerpt: 5-week-old female Balb/c mice were purchased from Orient Bio Inc. (Seongnam-si, Gyeonggi-do, Korea). All protocols of animal experiments were approved by Institutional Animal Care and Use Committee of Laboratory Animal Research Center, Chungbuk National University. The mice were fed by Teklad Global 18% protein rodent diet (Harlan, Iowa, USA) and had free access to drinking water. The mice were housed and bred under specific pathogen-free conditions, and were went through environmental acclimatization for one week before used in the animal experiments and were separated into three groups (n=70/group).
Bone marrow failure model induced by administering busulphan (BU) was designed according to the procedures previously described by Molyneux et al (Cell Biol Toxicol 27, 13-40, 2011) and the scheme is shown in FIG. 8. BU (Sigma chemicals, Poole, Dorset, UK) was dissolved in acetone to a final concentration of 18.8 mg/ml, diluted five-fold with distilled water, and was intraperitoneally administered three times for 5 days with the dose of 0.2 ml BU solution per mouse. Equal amount of five-fold diluted acetone solution without BU was administered to vehicle control group. QGR was dissolved in dimethylsulfoxide and diluted with distilled water to a final concentration of 1.25%. Mice were orally administered every two days with QGR (0.25 mg/mouse) for 63 days. Seven or eight mice were sacrificed on days of 1, 5, 10, 16, 25, 40, 49, and 63 after BU administration and were investigated to confirm the effect of QGR to recover bone marrow failure.
In order to evaluate the activity of QGR to recover anemia animal model induced by BU administration, peripheral blood was collected during an autopsy and were investigated. The collected peripheral blood was stored in the bottle containing EDTA to prevent a blood clotting, and the numbers of erythrocytes, leukocytes, and platelets, hematocrit (HCT) level, mean corpuscular volume (MCV), and mean corpuscular hemoglobin (MCH) were measured.

[5] = tested on: BMNCs; test: Cell viability assay (CCK-8), normoxia or hypoxia; type: cell-based, mouse
Excerpt: Bone marrow mononuclear cells (BMNCs) were isolated from femurs and tibias of 8 to 12-week-old male C57BL/6 mice by a previously described protocol [Kroeger K, Collins M, Ugozzoli (2009) The preparation of primary hematopoietic cell cultures from murine bone marrow for electroporation. J. Vis. Exp. 23: pii:1026. doi:10.3791/1026] and were separated from dead cells and red blood cells (RBCs) by Histopaque ([…]) (Sigma-Aldrich Chemical, St. Louis, Mo., USA) density gradient centrifugation. Thereafter, the cells were cultured in Iscove's modified Dulbecco's media (IMDM) with 15% heat inactivated fetal bovine serum (FBS), 1% bovine serum albumin (BSA), 100 units/ml penicillin and 100 μg/ml streptomycin at 37° C. in 5% CO2 humidified air. The separated blood was cultured as described previously [Oswald J, et al. (2004). Mesenchymal stem cells can be differentiated into endothelial cells in vitro. Stem Cells, 22: 377-384.] to obtain bone marrow stromal cells in α-minimum essential medium (MEM) with 20% heat inactivated FBS, 100 units/ml penicillin and 100 μg/ml streptomycin at 37° C. in 5% CO2 humidified air.
The possible cytotoxicity of QGR was examined in BMNCs. The cells were plated with a density of 5×10^3 cells/well in 96 well plates in 200 μl of medium. The cells cultured for 24 hrs with variable concentrations of QGR in either normoxia or hypoxia conditions were evaluated using a cell counting-8 assay kit (CCK-8) according to the manufacturer's instructions (Dojindo Molecular Technologies, Rockville, Md., USA). Briefly, 20 μl of CCK-8 solution was added to each well. The plates were incubated for 2 hrs in an incubator at 37° C. The resulting color was assayed at 450 nm using an EL808 microplate absorbance reader (BIO-TEK, Winooski, Vt., USA).

[6] = QGR 0.25 mg/mouse orally after BU

CC1OC(Oc2c(-c3ccc(O)c(O)c3)oc3cc(O)cc(O)c3c2=O)C(OC(=O)c2cc(O)c(O)c(O)c2)C(O)C1O (stereo not drawn) [QGR, quercetin 3-O-β-(2″-galloyl)-rhamnopyranoside]
formation and growth of BFU-E colonies compared with the positive control ([1]; cocktail (rIL-3, rSCF and rEpo) plus 200 μM QGR, p<0.01): 1.43 fold | number of BFU-E colonies compared with negative control ([1]; day 14, 100 or 200 μM/ml for QGR, dose-dependent): significantly enhanced | number of BFU-E colony compared with positive control ([1]; day 14, QGR alone vs rIL-3+rSCF+rEpo): smaller than that of positive control | number of enucleated erythroid cells ([2]; Wright-Giemsa staining): increased | TER-119+ cells (immunocytochemical analysis) ([2]; vs negative control): increased | superoxide production [3]: inhibiting | mean corpuscular volume (MCV) ([4]; BU group vs BU+QGR group): BU administration group are significantly lower than those of BU+QGR administration group | leukocyte numbers vs normal control group [4, 6]: slightly lower | recovery effect of leukocyte level, onset [4, 6]: ≥ 10 days | recovery effect on erythrocyte level, onset [4, 6]: ≥ 5 days | recovery of reduced platelet numbers, onset [4, 6]: ≥ 16 days | erythrocyte level vs normal control group ([4]; QGR 0.25 mg/mouse orally every two days after BU): slightly lower | erythrocyte level vs positive control group (BU + vehicle) ([4]; QGR 0.25 mg/mouse orally every two days, days 5, 10, 16, 25, 49, 63): significantly higher | leukocyte numbers vs positive control group (BU + vehicle) ([4]; day 10 up to day 63): higher level | hemoglobin (HGB) level ([4]; pattern similar to erythrocytes): recovered the anemia | platelet numbers ([4]; vs positive control group (BU + vehicle), significant differences continuously): steeply recovered | cell viability ([5]; 50 μM, 24 hrs): significantly increased cell viability | cytotoxicity ([5]; BMNCs, 24 hrs, various concentrations): not cytotoxic | cell viability after hypoxic damage ([5]; QGR post-treatment 200 μM, hypoxic damage for 24 hrs): increased cell viability | viable cells under hypoxic damage ([5]; QGR pretreatment, hypoxic damage 24 hrs, vs untreated group, dose-dependent): increased the viable cells
